The source of these data is ChEMBL document CHEMBL5352461, “Discovery of the novel Benzo[b]thiophene 1,1-dioxide derivatives as a potent STAT3 inhibitor against idiopathic pulmonary fibrosis” (Eur J Med Chem, 2023).

The term IC50 denotes the midpoint of a concentration-inhibition curve.

Each structure is given as a SMILES string. Activity calls are given as the source filed them. The calls are words filed in the database; no cut-off is given here.

The species entered for the first assay is Mus musculus. In words: Antifibrotic activity against bleomycin-induced C57BL/6 mouse lung fibrosis model assessed as reduction in CD11c+MHC II+ in dendritic cells in lung incubated for 30 mins by flow cytometry analysis ( Rvb = 23.67 %). In kind it is functional. The arrangement: scale not given: the % may be the effect or the level left. To be noted: 0.5 h. (In general: In flow cytometry, cells or beads pass a laser one at a time.)
As to `COC(=O)c1ccc2c(c1)NC(=O)/C2=C(\Nc1ccc(N(C)C(=O)CN2CCN(C)CC2)cc1)c1ccccc1` [NINTEDANIB], the Activity was 20.61%.

Another assay has as its system A549. The assay can be described thus: Induction of morphological changes in TGF-beta1 induced human A549 cells assessed as appearance of spindle shape cells at 200 nM measured for 24 hrs by phase contrast microscopy analysis.
Conditions: not given
In kind it is functional, cell-based.
Regarding `O=[N+]([O-])c1ccc2c(c1)S(=O)(=O)C=C2`, the outcome was Active.

The species named for another assay is Mus musculus. The assay can be described thus: Antifibrotic activity against bleomycin-induced C57BL/6 mouse lung fibrosis model assessed as reduction in CD4-CD69+ T cell in lung incubated for 30 mins by flow cytometry analysis ( Rvb = 6.54%). Type of assay: functional. The arrangement: scale not given: the % may be the effect or the level left. As to conditions: 0.5 h.
`COC(=O)c1ccc2c(c1)NC(=O)/C2=C(\Nc1ccc(N(C)C(=O)CN2CCN(C)CC2)cc1)c1ccccc1` [NINTEDANIB]: the Activity was 3.55%.

A further assay relates to NIH3T3. The assay can be described thus: Antiproliferative activity against mouse NIH3T3 cells assessed as cell growth inhibition incubated for 24 to 72 hrs by CCK-8 assay.
Conditions: not given
In kind it is functional, cell-based.
On to `O=C(Cc1ccccc1[N+](=O)[O-])NC1CCN(C(=O)C2=Cc3ccccc3S2(=O)=O)CC1`, for which the IC50 is over 10000 nM.
On to `Cc1ccc(CN2CCN(C(=O)C3=Cc4ccccc4S3(=O)=O)CC2)cc1`, for which the IC50 is 1660 nM.
As for `O=C(C1=Cc2ccccc2S1(=O)=O)N1CCN(C(=O)c2cc3ccccc3o2)CC1`, the IC50 was found to be 1220 nM.
Regarding `O=C(C1=Cc2ccccc2S1(=O)=O)N1CCN(C(=O)c2cc(F)c(F)cc2F)CC1`, the IC50 came out at 870 nM.
With `O=C(NC1CCN(C(=O)C2=Cc3ccccc3S2(=O)=O)CC1)c1cccc(Cl)c1`, the IC50 came out at 6760 nM.
On to `O=C(C1=Cc2ccccc2S1(=O)=O)N1CCN(S(=O)(=O)c2ccc3ccccc3c2)CC1`, for which the IC50 was over 10000 nM.
On to `O=[N+]([O-])c1ccc2c(c1)S(=O)(=O)C=C2`, for which the IC50 was 1180 nM.
For the compound `O=C(C1=Cc2ccccc2S1(=O)=O)N1CCN(S(=O)(=O)C2CCCCC2)CC1`, the half-inhibitory concentration (IC50) is 8920 nM.
With `COC(=O)c1ccc(CN2CCN(C(=O)C3=Cc4ccccc4S3(=O)=O)CC2)cc1`, the IC50 is 630 nM.
Regarding `O=C(C1=Cc2ccccc2S1(=O)=O)N1CCN(Cc2ccc3ccccc3c2)CC1`, the IC50 stood at 6780 nM.
Take `O=C(CC1CCCCC1)NC1CCN(C(=O)C2=Cc3ccccc3S2(=O)=O)CC1`: the IC50 is over 10000 nM.
In the case of `O=C(CN1CCOCC1)NC1CCN(C(=O)C2=Cc3ccccc3S2(=O)=O)CC1`, the IC50 amounted to 4850 nM.
Regarding `O=C(C1=Cc2ccccc2S1(=O)=O)N1CCN(Cc2ccc(-c3ccccc3)cc2)CC1`, the IC50 came out at 6470 nM.
Still for that read-out and setting: in the case of `COc1cc(CN2CCN(C(=O)C3=Cc4ccccc4S3(=O)=O)CC2)cc(OC)c1` it was 1110 nM; in that of `O=C(C1=Cc2ccccc2S1(=O)=O)N1CCN(Cc2ccc(C(F)(F)F)o2)CC1`, 1900 nM; in that of `O=C(C1=Cc2ccccc2S1(=O)=O)N1CCN(Cc2cccc(F)c2)CC1`, 950 nM.
`O=C(C1=Cc2ccccc2S1(=O)=O)N1CCN(Cc2ccc(Cl)cc2)CC1`: the IC50 is 2010 nM.
On the same count and under the same terms, in the case of `O=C(C1=Cc2ccccc2S1(=O)=O)N1CCN(Cc2ccc(C(F)(F)F)cc2)CC1` it was 1460 nM.
As to `O=C(CC1CCCC1)NC1CCN(C(=O)C2=Cc3ccccc3S2(=O)=O)CC1`, the IC50 was over 10000 nM.
The same measure, in the same setting: in the case of `O=C(C1=Cc2ccccc2S1(=O)=O)N1CCN(C(=O)c2cccnc2)CC1` it was 8450 nM.
The same measure, in the same setting: next, `O=C(C1=Cc2ccccc2S1(=O)=O)N1CCN(S(=O)(=O)c2cccs2)CC1`: 3870 nM.
Regarding `COC(=O)c1ccc(CN2CCN(C(=O)C3=Cc4ccccc4S3(=O)=O)CC2)cc1OC`, the IC50 came out at 1240 nM.
On the same count and under the same terms, in the case of `O=C(Cc1cccc2c1CCO2)NC1CCN(C(=O)C2=Cc3ccccc3S2(=O)=O)CC1` it was 3980 nM; in that of `COS(=O)(=O)c1ccc(CN2CCN(C(=O)C3=Cc4ccccc4S3(=O)=O)CC2)cc1`, 930 nM; in that of `O=C(C1=Cc2ccccc2S1(=O)=O)N1CCN(Cc2cc(F)c(F)c(F)c2F)CC1`, 1260 nM.
As for `O=C(Cc1cccc(C2CC2)c1)N1CCN(C(=O)C2=Cc3ccccc3S2(=O)=O)CC1`, the IC50 turned out to be 1750 nM.
As to `O=C(NC1CCN(C(=O)C2=Cc3ccccc3S2(=O)=O)CC1)c1ccc(Cl)cc1`, the IC50 amounted to 6260 nM.
As for `O=C(C1=Cc2ccccc2S1(=O)=O)N1CCN(Cc2ccccc2F)CC1`, the IC50 was determined as 1000 nM.
As for `O=C(C1=Cc2ccccc2S1(=O)=O)N1CCN(C(=O)c2cccnc2N2CCOCC2)CC1`, the IC50 was 3420 nM.
Regarding `COC(=O)c1cccc(CN2CCN(C(=O)C3=Cc4ccccc4S3(=O)=O)CC2)c1`, the IC50 turned out to be 1400 nM.
Take `CN(C)c1ccc(CC(=O)NC2CCN(C(=O)C3=Cc4ccccc4S3(=O)=O)CC2)cc1`: the half-maximal inhibitory concentration (IC50) is over 10000 nM.
Consider `O=C(C1=Cc2ccccc2S1(=O)=O)N1CCN(C(=O)c2scnc2Br)CC1`, for which the IC50 is 810 nM.
In the case of `CC(C)(C)OC(=O)N1CCOC(C(=O)N2CCN(C(=O)C3=Cc4ccccc4S3(=O)=O)CC2)C1` (centres undefined), the IC50 is 5230 nM.
Turning to `COC(=O)c1ccc2c(c1)NC(=O)/C2=C(\Nc1ccc(N(C)C(=O)CN2CCN(C)CC2)cc1)c1ccccc1` [NINTEDANIB], the IC50 turned out to be 2410 nM.
In the case of `O=C(Cc1cccc([N+](=O)[O-])c1)NC1CCN(C(=O)C2=Cc3ccccc3S2(=O)=O)CC1`, the IC50 was over 10000 nM.
On the same count and under the same terms, in the case of `O=C(C1=Cc2ccccc2S1(=O)=O)N1CCN(S(=O)(=O)c2cc(F)cc(F)c2)CC1` it was 1450 nM; in that of `Cc1noc(C)c1S(=O)(=O)N1CCN(C(=O)C2=Cc3ccccc3S2(=O)=O)CC1`, 1470 nM.
On to `O=C(C1=Cc2ccccc2S1(=O)=O)N1CCN(Cc2cccc(C(F)(F)F)c2)CC1`, for which the IC50 came out at 1320 nM.
Take `Cc1cccc(CN2CCN(C(=O)C3=Cc4ccccc4S3(=O)=O)CC2)c1`: the IC50 worked out at 2550 nM.
Take `O=C(C1=Cc2ccccc2S1(=O)=O)N1CCN(Cc2c(F)c(F)c(F)c(F)c2F)CC1`: the IC50 turned out to be 1290 nM.
On the same count and under the same terms, in the case of `Cc1nc(C)c(C(=O)NC2CCN(C(=O)C3=Cc4ccccc4S3(=O)=O)CC2)nc1C` it was 2130 nM.
In the case of `O=C(C1=Cc2ccccc2S1(=O)=O)N1CCN(C(=O)c2ccccn2)CC1`, the IC50 was found to be 6020 nM.
`O=C(C1=Cc2ccccc2S1(=O)=O)N1CCN(C(=O)c2ccc(F)cn2)CC1`: the IC50 worked out at 2090 nM.
`O=C(C1=Cc2ccccc2S1(=O)=O)N1CCN(S(=O)(=O)c2ccc3c(c2)CCO3)CC1`: the 50% inhibitory concentration (IC50) turned out to be 8890 nM.
In the case of `CC(C)(C)OC(=O)n1cc(CN2CCN(C(=O)C3=Cc4ccccc4S3(=O)=O)CC2)c2ccccc21`, the IC50 was 5120 nM.
Take `COC(=O)c1sccc1S(=O)(=O)N1CCN(C(=O)C2=Cc3ccccc3S2(=O)=O)CC1`: the half-maximal inhibitory concentration (IC50) is 4480 nM.
`O=C(C1=Cc2ccccc2S1(=O)=O)N1CCN(Cc2ccc(S(=O)(=O)C(F)(F)F)cc2)CC1`: the IC50 worked out at 1790 nM.
As to `COc1ccc(CN2CCN(C(=O)C3=Cc4ccccc4S3(=O)=O)CC2)cc1`, the half-maximal inhibitory concentration (IC50) came to 1780 nM.
As to `O=C(C1=Cc2ccccc2S1(=O)=O)N1CCN(C(=O)c2ccc(N3CCOCC3)nc2)CC1`, the IC50 came out at 2490 nM.

In another assay the test system is A549. In words: Inhibition of cell migration in TGF-beta1 induced human A549 cells measured for 24 hrs by contrast-phase microscopic analysis. In kind it is functional, cell-based.
Conditions: not given
Regarding `O=[N+]([O-])c1ccc2c(c1)S(=O)(=O)C=C2`, the inhibition result was “Active”.

A further assay is filed under the species Mus musculus. In words: Antifibrotic activity against bleomycin-induced C57BL/6 mouse lung fibrosis model assessed as reduction in F4/80+CD11b+ macrophage in lung incubated for 30 mins by flow cytometry analysis ( Rvb = 17.96%). In kind it is functional. The arrangement: scale not given: the % may be the effect or the level left. As to conditions: 0.5 h.
As for `COC(=O)c1ccc2c(c1)NC(=O)/C2=C(\Nc1ccc(N(C)C(=O)CN2CCN(C)CC2)cc1)c1ccccc1` [NINTEDANIB], the Activity amounted to 12.36%.
